According to article PMC8011926 (Journal of Medicinal Chemistry, 2020):
Non-standard residues stand in square brackets, D forms with d. Residues, ends and D or L forms follow the SMILES beside them. No end group written: not given here.

Tests used:
[1] = molecular target: T1, NOP receptor (NOP-RLuc/Gβ1-RGFP) (Homo sapiens, UniProt P41146); experiment: NOP/G protein interaction, BRET assay in membranes; format: biochemical; conditions: for NOP/G protein pEC50 (CL95%): BRET, membranes (3 μg protein) from HEK293 cells co-expressing NOP-RLuc/Gβ1-RGFP, room temperature, mean of five independent experiments in duplicate, 95% confidence limits; for NOP/G protein α ± sem (intrinsic activity): Emax of ligand / Emax of N/OFQ(1–13)-NH2, mean ± sem of five experiments in duplicate; for NOP/G protein CR (concentration ratio): ratio between EC50 of the ligand and that of the standard agonist N/OFQ(1–13)-NH2
T1 construct: expressed in transfected cells; host or cells: HEK293 (enriched plasma membranes)
T1 sequence (P41146 whole entry): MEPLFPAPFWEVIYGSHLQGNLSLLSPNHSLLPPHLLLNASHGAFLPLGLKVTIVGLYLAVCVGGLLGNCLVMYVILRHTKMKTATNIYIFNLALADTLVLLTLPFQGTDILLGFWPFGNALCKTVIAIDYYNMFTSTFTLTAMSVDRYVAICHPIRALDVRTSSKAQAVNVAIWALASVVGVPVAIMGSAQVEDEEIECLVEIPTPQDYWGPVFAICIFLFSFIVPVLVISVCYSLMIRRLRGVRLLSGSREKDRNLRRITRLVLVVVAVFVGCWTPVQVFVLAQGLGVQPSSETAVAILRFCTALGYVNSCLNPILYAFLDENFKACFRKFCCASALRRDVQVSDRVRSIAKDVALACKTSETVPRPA
Procedure: (§1) For this study, human embryonic kidney (HEK293) cells, permanently co-expressing the different pairs of fusion proteins NOP-RLuc/Gβ1-RGFP and NOP-RLuc/β-arrestin 2-RGFP, and SH-SY5Y cells stably, co-expressing the different pairs of fusion proteins mu-RLuc/Gβ1-RGFP and mu-RLuc/β-arrestin 2-RGFP or delta-RLuc/Gβ1-RGFP and delta-RLuc/β-arrestin 2-RGFP, were used. Cells were prepared and cultured, as described previously.[19],[23] Cells were grown in Dulbecco’s modified Eagle’s medium (DMEM)/HAMS F12 (1:1) supplemented with 10% fetal bovine serum, penicillin G (100 units/mL), streptomycin (100 μg mL^–1), L-glutamine (2 mM), fungizone (1 μg mL^–1), geneticin (G418; 200 μg mL^–1), and hygromycin B (100 μg mL^–1) in a humidified atmosphere of 5% CO2 at 37 °C. For G protein experiments, enriched plasma membrane aliquots from transfected cells were prepared by differential centrifugation; cells were detached with phosphate buffered saline (PBS)/EDTA solution (1 mM, pH 7.4 NaOH), then, after 5 min 500g centrifugation, Dounce-homogenized (30 strokes) in cold homogenization buffer (tris(hydroxymethyl)aminomethane 5 mM, EGTA 1 mM, DTT 1 mM, pH 7.4 HCl) in the presence of sucrose (0.32 M). Three following centrifugations were performed at 10 min 1000g (4 °C), and the supernatants were kept. Two 20 min 24,000g (4 °C) subsequent centrifugations (the second in the absence of sucrose) were performed for separating enriched membranes that, after discarding the supernatant, were kept in ultrapure water at −80 °C.[67] The protein concentration in membrane preparations was determined using the QPRO-BCA kit (Cyanagen Srl, Bologna, IT) and the Ensight (PerkinElmer, Waltham, USA) in the spectrophotometer mode.
(§2) Luminescence in membranes was recorded in 96-well untreated white opaque microplates, while in whole cells, it was recorded in 96-well sterile poly-D-lysine-coated white opaque microplates (PerkinElmer, Waltham, MA, USA) using the luminometer Victor 2030 (PerkinElmer, Waltham, MA, USA). For the determination of receptor/G protein interactions, membranes (3 μg of protein) prepared from cells co-expressing NOP (or mu or delta)/RLuc and Gβ1/RGFP were added to wells in DPBS. For the determination of receptor/β-arrestin 2 interactions, cells co-expressing NOP (or mu or delta)/RLuc and β-arrestin 2/RGFP were plated 24 h before the experiment in poly-D-lysine-treated plates (100,000 cells/well). The cells were prepared for the experiment substituting the medium with PBS with MgCl2 (0.5 mM) and CaCl2 (0.9 mM). Coelenterazine at a final concentration of 5 μM was injected 15 min prior to reading the cell plate. Different concentrations of ligands in 20 μL of PBS–BSA 0.01% were added and incubated 5 min before reading luminescence. […] The BRET ratio was measured 15 min after agonist injection. All experiments were performed at room temperature.
(§3) The pharmacological terminology adopted in this paper is consistent with IUPHAR recommendations.[68] All data are expressed as the mean ± sem of five independent experiments made in duplicate. […] Ligand efficacy was expressed as intrinsic activity (α), calculated as the ratio between the Emax of the ligand and that of the standard agonist. Count per second (CPS) measured for the RGFP and RLuc light emitted using 510(10) and 460(25) filters (PerkinElmer, Waltham, MA), respectively, was used to calculate the BRET ratio. All data are expressed as the stimulated BRET ratio, that is, the ratio between CPS from RGFP and RLuc in the presence of ligands minus the BRET ratio in vehicle-treated wells. […] Concentration–response curves to agonists were fitted to the classical four-parameter logistic nonlinear regression model [drawing 1]
(§4) Curves fitting were performed using PRISM 6.0 (GraphPad Software In., San Diego, USA).

[2] = molecular target: T2, NOP receptor (NOP-RLuc/β-arrestin 2-RGFP) (Homo sapiens, UniProt P41146); experiment: NOP/β-arrestin 2 interaction, BRET assay in whole cells; format: cell-based; conditions: for NOP/β-arrestin 2 pEC50 (CL95%): BRET, whole HEK293 cells co-expressing NOP-RLuc/β-arrestin 2-RGFP, 100,000 cells/well, room temperature, mean of five independent experiments in duplicate, 95% confidence limits; for NOP/β-arrestin 2 α ± sem (intrinsic activity): Emax of ligand / Emax of N/OFQ(1–13)-NH2, mean ± sem of five experiments in duplicate; for NOP/β-arrestin 2 CR (concentration ratio): ratio between EC50 of the ligand and that of the standard agonist N/OFQ(1–13)-NH2
T2 construct: expressed in transfected cells; host or cells: HEK293 (whole cells)
T2 sequence (P41146 whole entry): as above
Procedure: as §1, §2, §3, §4

[3] = test system: NOP receptor; experiment: NOP bias factor, G protein vs β-arrestin 2 (Black–Leff operational model); conditions: for BIAS FACTOR: supplementary CSV (molecular formula strings), repeats Tables 1–7 without confidence limits; for bias factor (CL95%), NOP: ΔΔlog(τ/KA) G protein minus β-arrestin 2, N/OFQ(1–13)-NH2 as standard unbiased ligand, positive = toward G protein, mean of at least five experiments
From the text: The concentration–response curves of each compound were fitted to the Black–Leff operational model, described by Nagi and Pineyro[70] [drawing 3] where [A] is the agonist concentration, the maximal response of the system is given by Em, n is a fitting parameter for the slope, the affinity of the agonist is represented by the equilibrium dissociation constant of the agonist–receptor complex (KA), and the efficacy of the agonist is defined by τ. τ and KA are descriptive parameters of intrinsic efficacy and binding affinity and may be directly obtained by fitting the experimental data to the operational equation and can be expressed as “transduction coefficients” log(τ/KA). The relative efficiency of agonists producing activation of any pathways can thus be quantified with a “normalized” transduction coefficient, namely Δlog(τ/KA). Finally, the bias factors were calculated as difference between Δlog(τ/KA) values for a given agonist between the pathways (G protein and β-arrestin 2) [drawing 4]
Bias factors are expressed as the mean of at least five independent experiments, and CL95% are indicated. Biased factor is considered to be statistically different from 0 when 0 is not included in CL95%. α values have been statistically analyzed with one-way analysis of variance (ANOVA) followed by the Dunnett post hoc test for multiple comparisons; P values less than 0.05 were considered to be statistically significant.

[4] = molecular target: N/OFQ peptide (NOP) receptor fused to Renilla luciferase (UniProt P41146)
Sequence of N/OFQ peptide (NOP) receptor fused to Renilla luciferase (P41146 whole entry, the tested form may be a part): as the sequence (P41146 whole entry) above

Molecule | NOP/G protein pEC50 (CL95%) [1] | NOP/G protein α ± sem (intrinsic activity) [1] | NOP/G protein CR (concentration ratio) [1] | NOP/β-arrestin 2 pEC50 (CL95%) [2] | NOP/β-arrestin 2 α ± sem (intrinsic activity) [2] | NOP/β-arrestin 2 CR (concentration ratio) [2] | BIAS FACTOR [3] | bias factor (CL95%), NOP [3] | pEC50 for promoting the NOP/G protein interaction (BRET, membranes with NOP-RLuc and Gβ1-RGFP) [4] | pEC50 for promoting the NOP/β-arrestin 2 interaction (BRET, cells with NOP-RLuc and β-arrestin 2-RGFP) [4] | other results
FGGFTGARASARK-NH2 [Compound 8, [Ala^9]N/OFQ(1–13)-NH2] | 8.14 (6.88–9.41) | 0.97 ± 0.04 | 5 | 7.77 (7.43–8.11) | 1.03 ± 0.07 | 3 | -0.15 | –0.15 (−0.79–0.49) |  |  | 
C[C@H](NC(=O)CNC(=O)[C@@H](NC(=O)[C@H](Cc1ccccc1)NC(=O)CNC(=O)[C@@H](C)NC(=O)[C@@H](N)Cc1ccccc1)[C@@H](C)O)C(=O)N[C@@H](CCCNC(=N)N)C(=O)N[C@@H](CCCCN)C(=O)N[C@@H](CO)C(=O)N[C@@H](C)C(=O)N[C@@H](CCCNC(=N)N)C(=O)N[C@@H](CCCCN)C(N)=O [Compound 26, [D-Ala^2]N/OFQ(1–13)-NH2] (H-F[dA]GFTGARKSARK-NH2) | 7.57 (7.28–7.86) | 1.03 ± 0.03 | 13 | 7.16 (6.94–7.34) | 0.95 ± 0.05 | 13 | 0.20 | 0.20 (−0.26–0.66) |  |  | less potent than N/OFQ(1–13)-NH2 / reduction of potency, NOP/G protein [1]: approximately 10 fold
FGGFTGARKSARA-NH2 [Compound 11, [Ala^13]N/OFQ(1–13)-NH2] | 7.91 (7.24–8.59) | 0.96 ± 0.06 | 8 | 7.88 (7.75–8.01) | 1.03 ± 0.05 | 2 | -0.48 | –0.48 (−1.14–0.18) |  |  | 
FGGFTGARKSAAK-NH2 [Compound 10, [Ala^12]N/OFQ(1–13)-NH2] | 7.31 (6.41–8.22) | 0.91 ± 0.04 | 31 | 6.85 (6.57–7.14) | 0.99 ± 0.05 | 26 | -0.15 | –0.15 (−0.78–0.49) |  |  | 
LGGFTGARKSARK-NH2 [Compound 23, [Leu^1]N/OFQ(1–13)-NH2] | 8.19 (7.88–8.51) | 1.06 ± 0.02 | 3 | 7.87 (7.69–8.04) | 1.04 ± 0.06 | 3 | -0.08 | –0.08 (−0.53–0.37) |  |  | 
[D-Phe^3]N/OFQ(1–13)-NH2 (FG[dF]FTGARKSARK-NH2; N-terminus assumed; SMILES C[C@H](NC(=O)CNC(=O)[C@@H](NC(=O)[C@H](Cc1ccccc1)NC(=O)[C@@H](Cc1ccccc1)NC(=O)CNC(=O)[C@@H](N)Cc1ccccc1)[C@@H](C)O)C(=O)N[C@@H](CCCNC(=N)N)C(=O)N[C@@H](CCCCN)C(=O)N[C@@H](CO)C(=O)N[C@@H](C)C(=O)N[C@@H](CCCNC(=N)N)C(=O)N[C@@H](CCCCN)C(N)=O) [Compound 25] | inactive |  |  | inactive |  |  |  |  |  |  | 
FGGFTGARKAARK-NH2 [Compound 9, [Ala^10]N/OFQ(1–13)-NH2] | 9.25 (7.82–10.68) | 0.94 ± 0.04 | 0.35 | 8.43 (7.91–8.95) | 1.00 ± 0.04 | 0.68 | -0.08 | –0.08 (−0.67–0.50) |  |  | 
[Ala^8]N/OFQ(1–13)-NH2 (FGGFTGAAKSARK-NH2) [Compound 7] | Crc incomplete |  | ∼1000 | inactive |  |  |  |  |  |  | 
FGGFAGARKSARK-NH2 [[Ala^5]N/OFQ(1–13)-NH2] |  |  |  |  |  |  |  |  | 7.12 -log10 M | 6.13 -log10 M | 
FGGFTGAAKSARK-NH2 [[Ala^8]N/OFQ(1–13)-NH2] |  |  |  |  |  |  |  |  |  |  | concentration ratio (EC50 of the ligand / EC50 of N/OFQ(1–13)-NH2) for promoting the NOP/G protein interaction (BRET, membranes); concentration–response curve incomplete [4]: 1000
FGGFTAARKSARK-NH2 [[Ala^6]N/OFQ(1–13)-NH2] |  |  |  |  |  |  |  |  | 7.66 -log10 M | 7.1 -log10 M | 
AGGFTGARKSARK-NH2 [[Ala^1]N/OFQ(1–13)-NH2] |  |  |  |  |  |  |  |  |  |  | concentration ratio (EC50 of the ligand / EC50 of N/OFQ(1–13)-NH2) for promoting the NOP/G protein interaction (BRET, membranes); concentration–response curve incomplete [4]: 700
FGGFTGARASARK-NH2 [[Ala^9]N/OFQ(1–13)-NH2] |  |  |  |  |  |  |  |  | 8.14 -log10 M | 7.77 -log10 M | 
FGGFTGARKSARA-NH2 [[Ala^13]N/OFQ(1–13)-NH2] |  |  |  |  |  |  |  |  | 7.91 -log10 M | 7.88 -log10 M | 
FGGFTGARKSAAK-NH2 [[Ala^12]N/OFQ(1–13)-NH2] |  |  |  |  |  |  |  |  | 7.31 -log10 M | 6.85 -log10 M | 
FAGFTGARKSARK-NH2 [[Ala^2]N/OFQ(1–13)-NH2] |  |  |  |  |  |  |  |  | 6.36 -log10 M |  | 
FGGFTGARKAARK-NH2 [[Ala^10]N/OFQ(1–13)-NH2] |  |  |  |  |  |  |  |  | 9.25 -log10 M | 8.43 -log10 M | 
